Converted amounts (≈) assume the structure as drawn. Read-outs that look alike come from different tables or passages of the source.
Assays:
[1] = test system: B. thetaiotaomicron ATCC 29741; test: Antibacterial MIC, CLSI broth microdilution; type: cell-based; details: for MIC: Bacteroides thetaiotaomicron
Experimental: (§1) Grain (−) and gram (+) antibacterial minimum inhibitory concentration (MIC) values (μg/mL) were obtained using CLSI methodology for anti-bacterial susceptibility testing. On each day of testing, serial dilutions of compounds were prepared in microdilution plates using a Tecan robotic workstation. Mueller Hinton broth cultures of representative sensitive and resistant gram negative strains were grown or adjusted to match the turbidity of a 0.5 McFarland standard. 1:200 dilutions were made in an appropriate broth (cation supplemented Mueller Hinton broth) to allow a final inoculum of 1×10^5 cfu. Plates were incubated at 35° C. in ambient air for 18-24 hours, were read spectrophotometrically and checked manually for evidence of bacterial growth. The lowest dilution of compound that inhibited growth was recorded as the MIC. Lysed horse blood was used to supplement broth for testing S. pneumoniae. The MIC's for each compound were assessed against S. aureus, S. pneumoniae, P. acnes, E. coli and B. theta.

E. coli ATCC 25922 = test: Antibacterial MIC, CLSI broth microdilution; type: cell-based; details: 35° C., 18-24 hours; for MIC: Escherichia coli, ATCC25922
Experimental: as §1

E. coli MG 1655 = test: Antibacterial MIC, CLSI broth microdilution; type: cell-based; details: 35° C., 18-24 hours; for MIC: Escherichia coli, MG1655
Experimental: as §1

P. acnes ATCC 11827 = test: Antibacterial MIC, CLSI broth microdilution; type: cell-based; details: 35° C., 18-24 hours; for MIC: Cutibacterium acnes, ATCC11827
Experimental: as §1

P. acnes ATCC 6919 = test: Antibacterial MIC, CLSI broth microdilution; type: cell-based; details: 35° C., 18-24 hours; for MIC: Cutibacterium acnes, ATCC6919
Experimental: as §1

S. aureus RN450 [2] = test: Antibacterial MIC, CLSI broth microdilution; type: cell-based; details: 35° C., 18-24 hours; for MIC: Staphylococcus aureus, RN450
Experimental: as §1

[3] = test system: S. pneumoniae 157E - Strep; test: Antibacterial MIC, CLSI broth microdilution; type: cell-based; details: 35° C., 18-24 hours, lysed horse blood; for MIC: Streptococcus pneumoniae, 157ESTREP
Experimental: as §1

in vitro = type: cell-based
Experimental: Mammalian cell cytotoxicity was assessed to evaluate potential in vivo risks associated with the tetracycline compounds of the invention. A soluble, non-toxic redox dye (“Resazurin”; Alamar Blue) was used to assess a tetracycline compound's effect on cellular metabolism. At the onset of the experiment, cultures of mammalian COS-1 or CHO cells were washed, trypsinized, and harvested. […] On the next day, serial dilutions of test drug were prepared under sterile conditions and transferred to cell plates. Plates were then incubated under the above conditions for 24 hours. Following the incubation period, the media/drug was aspirated, and 50 μL of resazurin was added. Plates were then incubated under the above conditions for 2 hours and then in the dark at room temperature for an additional 30 minutes. Fluorescence measurements were taken (excitation 535 nm, emission 590 nm) and toxic effects in treated versus control cells were compared based on the degree of fluorescence in each well.

S. aureus RN450 [4] = test: In vivo anti-bacterial activity, S. aureus model; details: mice, lethal IP S. aureus RN450, subcutaneous, 24 hours
Experimental: Groups of five mice were injected intraperitoneally with a lethal dose of S. aureus RN450 in a medium of mucin. Mice were evaluated at 24 hours to determine survival. […] In some instances, a dose response study was performed with the compound such that a PD50 (a dose of compound that protects 50% of the animals) could be calculated.

[5] = ATCC29741, 35° C., 18-24 hours, read-out: MIC B. thetaiotaomicron ATCC 29741

Molecule | MIC [1, 5] [µg/mL] | MIC (E. coli ATCC 25922) [µg/mL] | MIC (E. coli MG 1655) [µg/mL] | MIC (P. acnes ATCC 11827) [µg/mL] | MIC (P. acnes ATCC 6919) [µg/mL] | MIC (S. aureus RN450 [2]) [µg/mL] | MIC [3] [µg/mL] | IC50 at 24 h (in vitro; African green monkey) [µg/mL] | IC50 at 24 h (in vitro; Chinese hamster) [µg/mL] | MIC ([1]; ATCC29741, read-out: MIC B. thetaiotaomicron ATCC 29741) [µg/mL] | MIC B. thetaiotaomicron ATCC 29741 ([1]; 35° C., 18-24 hours) | MIC E. coli ATCC 25922 (E. coli ATCC 25922) | MIC E. coli MG 1655 (E. coli MG 1655) | MIC P. acnes ATCC 11827 (P. acnes ATCC 11827) | MIC P. acnes ATCC 6919 (P. acnes ATCC 6919) | MIC S. aureus RN450 (S. aureus RN450 [2]) | MIC S. pneumoniae 157E - Strep [3] | PD50 (dose that protects 50% of the animals) (S. aureus RN450 [4]) [mg/kg]
C/C(=N\OC(C)(C)C)c1cc(N)c(O)c2c1C[C@H]1C[C@H]3[C@@H](N(C)C)C(O)=C(C(N)=O)C(=O)[C@@]3(O)C(O)=C1C2=O [R] | 4 to 8 (≈ 7.37 to 14.7 µM) | > 8 | > 8 | < 4 | < 4 | < 4 | < 4 | < 35 | < 35 |  |  |  |  |  |  |  |  | 
CN(C)[C@@H]1C(O)=C(C(N)=O)C(=O)[C@@]2(O)C(O)=C3C(=O)c4cccc(-c5ncccn5)c4C[C@H]3C[C@@H]12 [S] | > 8 | > 8 | > 8 | 4 to 8 (≈ 8.39 to 16.8 µM) | 4 to 8 (≈ 8.39 to 16.8 µM) | < 4 | < 4 | > 75 | > 75 |  |  |  |  |  |  |  |  | 
CN(C)[C@@H]1C(O)=C(C(N)=O)C(=O)[C@@]2(O)C(O)=C3C(=O)c4c(O)ccc(-c5ccc[nH]5)c4C[C@H]3C[C@@H]12 [T, (4S,4aS,5aR,12aS)-4-Dimethylamino-3,10,12,12a-tetrahydroxy-1,11-dioxo-7-(1H-pyrrol-2-yl)-1,4,4a,5,5a,6,11,12a-octahydro-naphthacene-2-carboxylic acid amide] | 4 to 8 (≈ 8.34 to 16.7 µM) | < 4 | < 4 | < 4 | < 4 | < 4 | < 4 | < 35 | < 35 |  |  |  |  |  |  |  |  | 
CN(C)[C@@H]1C(O)=C(C(N)=O)C(=O)[C@@]2(O)C(O)=C3C(=O)c4c(O)ccc(CN5CCCO5)c4C[C@H]3C[C@@H]12 [U] | 4 to 8 (≈ 8.01 to 16 µM) | < 4 | 4 to 8 (≈ 8.01 to 16 µM) | < 4 | < 4 | < 4 | < 4 | > 75 | 35 to 75 (≈ 70.1 to 150 µM) |  |  |  |  |  |  |  |  | 
CN(C)[C@@H]1C(O)=C(C(N)=O)C(=O)[C@@]2(O)C(O)=C3C(=O)c4c(O)ccc(/C=N/NC(C)(C)C)c4C[C@H]3C[C@@H]12 [X] | < 4 | < 4 | < 4 | < 4 | < 4 | < 4 | < 4 | < 35 | < 35 |  |  |  |  |  |  |  |  | 
CON(C)Cc1ccc(O)c2c1C[C@H]1C[C@H]3[C@@H](N(C)C)C(O)=C(C(N)=O)C(=O)[C@@]3(O)C(O)=C1C2=O [Y] |  | > 8 | > 8 | < 4 | < 4 | < 4 | 4 to 8 (≈ 8.2 to 16.4 µM) | > 75 | > 75 | > 8 |  |  |  |  |  |  |  | 
CCNN(CC)Cc1ccc(O)c2c1C[C@H]1C[C@H]3[C@H](N(C)C)C(O)=C(C(N)=O)C(=O)[C@@]3(O)C(O)=C1C2=O [Z, (4S,4aS,5aR,12aS)-7-(N,N″-Diethyl-hydrazinomethyl)-4-dimethylamino-3,10,12,12a-tetrahydroxy-1,11-dioxo-1,4,4a,5,5a,6,11,12a-octahydro-naphthacene-2-carboxylic acid amide] | > 8 | 4 to 8 (≈ 7.77 to 15.5 µM) | 4 to 8 (≈ 7.77 to 15.5 µM) | < 4 | < 4 | < 4 | < 4 | > 75 | > 75 |  |  |  |  |  |  |  |  | 
(4S,4aS,5aR,12aS)-4-Dimethylamino-3,12,12a-trihydroxy-1,11-dioxo-7-pyrazin-2-yl-1,4,4a,5,5a,6,11,12a-octahydro-naphthacene-2-carboxylic acid amide [W] |  |  |  |  |  |  |  |  |  |  | * (weak or no antibacterial activity (greater than about 8 μg/mL)) | * (weak or no antibacterial activity (greater than about 8 μg/mL)) | * (weak or no antibacterial activity (greater than about 8 μg/mL)) | *** (Good antibacterial activity (e.g., less than about 4 μg/mL)) | *** (Good antibacterial activity (e.g., less than about 4 μg/mL)) | *** (Good antibacterial activity (e.g., less than about 4 μg/mL)) | *** (Good antibacterial activity (e.g., less than about 4 μg/mL)) | 1.08

Reference: patent publication US9012433B2, “Substituted tetracycline compounds” (Paratek Pharmaceuticals, Inc., priority 2006, dated 2015)
